Experimental data as given in paper PMC9256669, “Monomethyl auristatin antibody and peptide drug conjugates for trimodal cancer chemo-radio-immunotherapy” (Nature Communications, 2022).
Several values for one entry are separate records, joined by “and”; a condition that tells them apart may be missing. Equal entries are not always repeated. Entries after “also recorded” stand apart in the source; their conditions may differ. Where two headings read alike, the source gives them in different places. Non-standard residues stand in square brackets, D forms with d. Residues, ends and D or L forms follow the SMILES beside them. Dolaproine = CO[C@@H]([C@@H]1CCCN1)[C@@H](C)C(=O)O; Dil = CC[C@H](C)[C@H](NC)[C@@H](CC(=O)O)OC; NMeV = CN[C@H](C(=O)O)C(C)C

Assays:
A549 = assay: Cytotoxicity, Alamar Blue assay; type: cell-based, human; settings: 72 h drug exposure, one value per biological replicate
Procedure: (§1) Cells were plated in 96-well plates and exposed to a drug concentration range for 72 h. Alamar Blue was added to the cells and allowed to incubate for 2–4 h at 37 °C. Plates were analyzed using a plate reader with fluorescence measured at 560 nm. Fractional survival was normalized to untreated control cell fluorescent values. Drug IC50 was calculated using Prism software (GraphPad, La Jolla, CA). Cell viability, cytotoxicity and apoptosis were also measured by ApoTox-Glo Triplex Assay (Promega).

HCT116 = assay: Cytotoxicity, Alamar Blue assay; type: cell-based, human; settings: 72 h drug exposure, one value per biological replicate
Procedure: as §1

CAL27 = assay: Cytotoxicity, Alamar Blue assay; type: cell-based, human
Procedure: (§2) Murine colorectal (MC38 (ENH204-FP)) cancer cell lines were obtained from Kerafast. Murine head and neck MOC1 and MOC2 were generously provided by Dr. R. Uppaluri. CAL27 PIK3CA H1047R expressing cells and 4MOSC1 cells were generated in Dr. Gutkind’s laboratory and previously characterized[42],[55]. […] MC38 cells were cultured in DMEM supplemented with 10% FBS, 1 mM sodium pyruvate (Gibco), 1% non-essential amino acids (Gibco), and 10 mM HEPES (Gibco). MOC1 and MOC2 cells were cultured in IMDM (Lonza)/F-12K nutrient mixture at a 2:1 mixture with 5% FBS, 5 ng/ml EGF (EMD Millipore), 400 ng/ml hydrocortisone (Sigma), and […] insulin (Sigma). On receipt, each cell line was expanded, cryopreserved as low passage stocks, and routinely tested for mycoplasma. Cisplatin (Enzo Biosciences), paclitaxel (Sigma), and MMAE (Concortis) were reconstituted in DMSO. Clinical-grade CDX3379 was provided by Celldex. Clinical grade cetuximab (Erbitux, Lilly Medical) was obtained from UCSD Moores Cancer Center Pharmacy.
as §1

Detroit 562 = assay: Cytotoxicity, Alamar Blue assay; type: cell-based, human
Procedure: as §2, §1

4MOSC1 = assay: Cytotoxicity, Alamar Blue assay; type: cell-based, murine
Procedure: as §2, §1

B16 = assay: Cytotoxicity, Alamar Blue assay; type: cell-based, murine
Procedure: as §2, §1

LL2 = assay: Cytotoxicity, Alamar Blue assay; type: cell-based, murine
Procedure: as §2, §1

MC38 = assay: Cytotoxicity, Alamar Blue assay; type: cell-based, murine
Procedure: as §2, §1

MOC1 = assay: Cytotoxicity, Alamar Blue assay; type: cell-based, murine
Procedure: as §2, with “Clinical-grade CDX3379 was provided by Celldex.” left out
as §1
(§3) measured by Alamar Blue assay. For Alamar Blue assay cytotoxicity, we measured cell viability at 72 hr of […]

MOC2 = assay: Cytotoxicity, Alamar Blue assay; type: cell-based, murine
Procedure: as §2, with “Clinical-grade CDX3379 was provided by Celldex.” left out
as §1, §3

[1] = cited from earlier work
[2] = system: melanoma and lung cancer models; settings: without radiotherapy; cited from earlier work
Source text: In the last decade, therapeutics targeting immune checkpoint inhibitors (i.e., CTLA-4, PD-1, and PD-L1) have revolutionized cancer care for subsets of oncology patients[24],[25]. There is tremendous interest in developing strategies to further improve immune checkpoint inhibitor responses to wider patient populations. To achieve increasing therapeutic precision, integrating the specificity of ADC with inherent targeting of radiotherapy and immunotherapy is appealing. […] U3-1402 is a HER3-targeted ADC with a topoisomer ...

B16 tumors = assay: Subcutaneous tumor therapy, CDX3379-MMAE or CDX3379-MMAF with IR, mouse survival; type: in vivo, C57BL/6 mice
Procedure: MOC1, B16, LL/2, and MC38 tumor cells were injected subcutaneously into the hindlimbs of 6-week-old female C57BL/6 albino mice in 100 µl of 1:1 Matrigel (BD) and PBS solution. Fractionated IR was delivered focally to the tumor-bearing hindlimbs (3 Gy to MC38 tumors and 5 Gy to LL/2 and B16 tumors) as indicated in figure legends using a PXI X-RAD 225 XL irradiator at maximal dose rate of 3 Gy/min with a beam-conditioning aluminum filter (Precision X-ray Irradiation). For RAG1 KO studies, 6-week-old female Rag1^tm1Mom mice were injected subcutaneously with tumor cells in their hindlimbs (Jackson Labs). For CD8 depletion studies, mice were i.p. injected with anti-CD8 (BioXCell #BE0117) at 10 mg/kg on days −6, −5 and −4 tumor cell implant and then weekly starting on day after tumor cells were injected or control antibody. […] Tumor volumes were measured and calculated using the formula as ½ * length * width^2. Mice were sacrificed when tumor volume reached >1500 mm^3, maximal tumor volume approved on our protocol for subcutaneous tumors.

For N.N.[Cl][Pt][Cl] [Cisplatin], the IC50 (A549) was 22600 nM and 27200 nM and 13600 nM and 15400 nM, the IC50 (HCT116) was 42200 nM and 55500 nM and the IC50 (CAL27; 72 h drug exposure, one value per biological replicate, read-out: IC50 values) was 3650 nM and 3760 nM and 7310 nM and 8270 nM and 7270 nM and 6950 nM. For the same molecule, the IC50 (Detroit 562; Detroit 562, 72 h drug exposure, one value per biological replicate, read-out: IC50 values) was 11500 nM and 9550 nM and 10400 nM and 11800 nM, the IC50 (4MOSC1; 4MOSC1, 72 h drug exposure, one value per biological replicate, read-out: IC50 values) was 1370 nM and 1460 nM and the IC50 (B16; B16, 72 h drug exposure, one value per biological replicate, read-out: IC50 values) was 3770 nM and 4490 nM. The IC50 (LL2; LL2, 72 h drug exposure, one value per biological replicate, read-out: IC50 values) was 1080 nM and 745 nM, the IC50 (MC38; MC38, 72 h drug exposure, one value per biological replicate, read-out: IC50 values) was 3640 nM and 3830 nM and the IC50 (MOC1; MOC1; 72 h drug exposure, Alamar Blue; one value per biological replicate; read-out: IC50 values) was 13700 nM and 15300 nM and 10400 nM and 10700 nM. For the same molecule, the IC50 (MOC2; MOC2, 72 h drug exposure, one value per biological replicate, read-out: IC50 values) was 8750 nM and 9990 nM.

In the case of CC[C@H](C)[C@@H]([C@@H](CC(=O)N1CCC[C@H]1[C@H](OC)[C@@H](C)C(=O)N[C@@H](Cc1ccccc1)C(=O)O)OC)N(C)C(=O)[C@@H](NC(=O)[C@@H](NC)C(C)C)C(C)C [MMAF, monomethyl auristatin F] (H-[NMeV]V[Dil][Dolaproine]F-OH), the “cell permeability as free drug” value [1] is given as “reduced cell permeability compared to MMAE”.

For “Enapotamab vedotin: AXL-targeted ADC conjugate with an MMAE warhead”, the “survival and tumor control” value [2] is listed as “prolonged mouse survival; also recorded: failed to generate durable tumor control”.

In the case of CC(=O)O[C@H]1C(=O)[C@@]2(C)[C@H]([C@H](OC(=O)c3ccccc3)[C@]3(O)C[C@H](OC(=O)[C@H](O)[C@@H](NC(=O)c4ccccc4)c4ccccc4)C(C)=C1C3(C)C)[C@]1(OC(C)=O)CO[C@@H]1C[C@@H]2O [Paclitaxel], the IC50 (A549) is reported as 23.3 nM and 15.1 nM, the IC50 (A549; Homo sapiens, A549, 72 h) is reported as 16.6 nM and the IC50 (HCT116) is reported as 2.04 nM and 8.38 nM and 12.4 nM and 9.33 nM. The IC50 (CAL27; read-out: IC50 values, 72 h drug exposure, one value per biological replicate) was 1.4 nM and 1.52 nM and 3.46 nM and 4.62 nM and 3.12 nM and 3.36 nM, the IC50 (Detroit 562; Homo sapiens, Detroit 562, 72 h, read-out: IC50 values, Detroit 562, 72 h drug exposure, one value per biological replicate) was 5.71 nM and the IC50 (Detroit 562; read-out: IC50 values, Detroit 562, 72 h drug exposure, one value per biological replicate) was 5.94 nM and 3.87 nM and 4.75 nM. The IC50 (4MOSC1; Mus musculus, 72 h, read-out: IC50 values, 4MOSC1, 72 h drug exposure, one value per biological replicate) was 7.65 nM, the IC50 (4MOSC1; read-out: IC50 values, 4MOSC1, 72 h drug exposure, one value per biological replicate) was 12.9 nM and the IC50 (B16; Mus musculus, B16, 72 h, read-out: IC50 values, B16, 72 h drug exposure, one value per biological replicate) was 6.1 nM. It also gave an IC50 (B16; read-out: IC50 values, B16, 72 h drug exposure, one value per biological replicate) of 7.8 nM, an IC50 (LL2; Mus musculus, LL/2, 72 h, read-out: IC50 values, LL2, 72 h drug exposure, one value per biological replicate) of 15.3 nM and an IC50 (LL2; read-out: IC50 values, LL2, 72 h drug exposure, one value per biological replicate) of 16.6 nM. For the same molecule, the IC50 (MC38; Mus musculus, MC-38, 72 h, read-out: IC50 values, MC38, 72 h drug exposure, one value per biological replicate) was 67 nM, the IC50 (MC38; read-out: IC50 values, MC38, 72 h drug exposure, one value per biological replicate) was 75.7 nM and the IC50 (MOC1; read-out: IC50 values; MOC1; 72 h drug exposure, Alamar Blue; one value per biological replicate) was 45.4 nM and 54.2 nM and 26.8 nM and 24.6 nM. It also gave an IC50 (MOC2; Mus musculus, 72 h, read-out: IC50 values, MOC2, 72 h drug exposure, one value per biological replicate) of 43.5 nM and an IC50 (MOC2; read-out: IC50 values, MOC2, 72 h drug exposure, one value per biological replicate) of 56.4 nM.

B1: CDX3379-MMAF: anti-HER3 antibody CDX3379 conjugated to MMAF via MC-VC-PABC linker (conjugate, chains of the INN, looked up)
VH: EVQLLESGGGLVQPGGSLRLSCAASGFTFSSYAMSWVRQAPGKGLEWVSAINSQGKSTYYADSVKGRFTISRDNSKNTLYLQMNSLRAEDTAVYYCARWGDEGFDIWGQGTLVTVSS
VL: DIQMTQSPSSLSASVGDRVTITCRASQGISNWLAWYQQKPGKAPKLLIYGASSLQSGVPSRFSGSGSGTDFTLTISSLQPEDFATYYCQQYSSFPTTFGQGTKVEIK
modifications: MMAF via MC-VC-PABC linker
With B1 the “tumor control and survival, + IR” value (B16 tumors; B16, 2.5 nmoles ADC x 2 doses + IR 5 Gy x 3) was “CDX3379-MMAE proved to be superior to CDX3379-MMAF” and the “Mouse survival, status” value (B16 tumors; with IR, individual mice, status at the day, Figure 3h) was 1.
